Source: US5602146A, “4-iminoquinolines, processes for their preparation, and their use” (Hoechst Aktiengesellschaft, priority 1992, dated 1997)
In brackets after ≈: the same amount, converted by molar mass.

Key:
[1] = target: T1, HIV "Reverse Transcriptase" (Human immunodeficiency virus type 1 group M subtype B, UniProt P04585); test: Inhibition of HIV "Reverse Transcriptase" (Scintillation Proximity Assay); assay type: biochemical; details: RT-SPA, RT from HIV cloned in E. coli, 60 minutes (37° C.)
T1 construct: purchased HT-Biotechnology Ltd., Cambridge, UK; host or cells: E. coli
Description: Investigation of the substances for inhibition of HIV "Reverse Transcriptase"
The activity of reverse transcriptase (RT) was determined with the aid of a "Scintillation Proximity Assay" (SPA). The reagent kit for the RT-SPA was obtained from Amersham/Buchler (Braunschweig). The enzyme RT (from HIV cloned in E. coli) originated from HT-Biotechnology Ltd., Cambridge, UK.
The test was carried out in accordance with the method manual of the manufacturer Amersham--with the following modifications:
bovine serum albumin was added to the "assay" buffer to the final concentration of 0.5 mg/ml.
the test was carried out in Eppendorf reaction vessels with a batch volume of […].
the RT concentrate of the manufacturer (5000 U/ml) was diluted to an activity of 15 U/ml in tris-HCl buffer 20 mM; pH 7.2; 30% of glycerol.
the incubation time for the batches was 60 minutes (37° C.).
after the reaction had been stopped and after "development" with the bead suspension, […] of the batch were transferred to 4.5 ml of tris-HCl buffer, 10 mM; pH 7.4; 0.15M NaCl, and the tritium activity was measured in a β-counter.
Testing of the substances:
For a preliminary test of the inhibitor activity, the substances were dissolved in dimethyl sulfoxide (stock solution c=1 mg/ml) and tested in a dilution in dimethyl sulfoxide of 10^-1, 10^-2, 10^-3 and the like to determine IC50 values, the inhibitor stock solutions were further diluted in tris-HCl buffer, 50 mM, pH 8 and tested in suitable concentrations. The concentration associated with 50% enzyme inhibition was determined from the graph of RT activity against Log Cinh.

HIV = test: Testing of preparations against HIV in a cell culture (T-Cell culture assay); assay type: cell-based; details: Human immunodeficiency virus 1, 72 h; HIV-infected lymphocytes, 37° C. for 3 days; lowest concentration at which no giant cells occurred; read-out: T-Cell culture assay Minimum inhibitory concentration
Description: Testing of preparations against HIV in a cell culture
Description of the method
The complete medium additionally contains 20% of fetal calf serum and 40 IU/ml of recombinant interleukin 2. Cells:
Lymphocytes isolated from fresh donor blood by means of Ficol® gradient centrifugation are cultured, with addition of […] of phytohemagglutinin (Wellcome) in the complete medium at 37° C. under 5% of CO2 for 36 hours. After addition of 10% of dimethyl sulfoxide, the cells are frozen at a cell density of 5×10^6 and stored in liquid nitrogen. For the experiment, the cells are thawed, washed in RPMI medium and cultured in the complete medium for 3-4 days.
The test preparations were dissolved in dimethyl sulfoxide in a concentration of 16.7 mg/ml and diluted to 1 mg/ml in complete medium.
0.4 ml of medium was initially introduced into 24-well multiwell dishes. After addition of 0.1 ml of the dissolved preparation into the upper row of the dish, a geometric dilution series was produced by transferring in each case 0.1 ml. Preparation-free controls always contained 0.4 ml of complete medium with 0.5% of dimethyl sulfoxide.
Lymphocyte cultures having a cell count of 5×10^5 cells/ml were infected by addition of 1/50 of the volume of supernatant from HIV-infected lymphocyte cultures. The titer of these culture supernatants was determined by end point dilution with 1-5×10^6 infectious units/ml. After incubation at 37° C. for 30 minutes, the infected lymphocytes were centrifuged off and taken up again in the same volume of medium. In each case 0.6 ml of this cell suspension was introduced into each of the depression walls of the test plate. The batches were incubated at 37° C. for 3 days.
The infected cell cultures were examined under the microscope for the presence of giant cells, which indicate active multiplication of the virus in the culture. The lowest concentration of preparation at which no giant cells occurred was determined as the inhibitory concentration against HIV. As a control, the supernatants from the culture plates were investigated for the presence of the HIV antigen with the aid of an HIV antigen test in accordance with the manufacturer's information (Organon).

Compound | IC50 [1] | MIC (HIV) | Reverse transcriptase assay IC50 [1]
CCON=C1c2cc(Cl)ccc2NC(=O)C1CC (stereo not drawn) [Example 39] | 37.5 to 375 nM | 1 µg/mL (≈ 3.75 µM) | –
C=CCON=C1c2cc(Cl)ccc2NC(=O)C1(C)C [Example 47] | 35.9 to 359 nM | – | –
CCON=C1c2cc(Cl)ccc2NC(=S)C12CCCC2 [Example 122] | – | 0.008 µg/mL (≈ 0.0259 µM) | –
CCON=C1c2cc(Cl)ccc2N=C(Nc2ccc(Cl)cc2)C1(C)C [Example 132] | ~266 nM | – | –
CC1(C)C(=O)Nc2ccc(Cl)cc2C1=NOCc1ccccc1 [Example 10A, anti-4-(Benzyloxyimino)-6-chloro-3,3-dimethyl-1,3-dihydroquinolin-2-one] | > 30400 nM | – | –
CC1(C)C(=S)Nc2ccc(Cl)cc2C1=NOCc1ccccc1[N+](=O)[O-] [Example 21] | 256 to 2560 nM | – | –
CC1(C)C(=S)Nc2ccc(Cl)cc2C1=NOCc1ccc(Cl)cc1 [Example 27] | 2640 to 26400 nM | – | –
COCCON=C1c2cc(Cl)ccc2NC(=S)C1(C)C [Example 33] | ~32 nM | 0.2 µg/mL (≈ 0.639 µM) | –
CC(C)ON=C1c2cc(Cl)ccc2NC(=S)C12CCCC2 [Example 117] | 3.1 to 31 nM | – | –
CCON=C1c2cc(Cl)ccc2NC(=O)C12CCC2 [Example 114] | 21.5 nM | – | –
CCON=C1c2cc(OCC)ccc2NC(=NO)C1(C)C [Example 124] | ~343 nM | 0.4 µg/mL (≈ 1.37 µM) | –
CCON=C1c2cc(Cl)ccc2NC(=S)C1(C)C [Example 5, syn-6-Chloro-3,3-dimethyl-4-(ethyloxyimino)-1,3-dihydroquinoline-2-thione] | – | – | 0.001 to 0.01 µg/mL
CC1(C)C(=O)Nc2ccc(Cl)cc2C1=NOCc1ccccc1[N+](=O)[O-] [Example 20] | 2680 to 26800 nM | – | –
CCC1C(=N)c2cc(Cl)ccc2NC1=S (stereo not drawn) [Example 42] | 4190 to 41900 nM | – | –
CSCCON=C1c2cc(Cl)ccc2NC(=S)C1(C)C [Example 50] | 30.4 to 304 nM | 0.2 µg/mL (≈ 0.608 µM) | –
C=CCON=C1c2cc(Cl)ccc2NC(=S)C1(C)C [Example 48] | 3.39 to 33.9 nM | 0.04 µg/mL (≈ 0.136 µM) | –
CC1(C)C(=S)Nc2ccc(Cl)cc2C1=NOCc1ccccc1 [Example 16] | 290 to 2900 nM | – | –
CCC1(CC)C(=O)Nc2ccc(Cl)cc2C1=NOC(C)C [Example 119] | 3.24 to 32.4 nM | 0.008 µg/mL (≈ 0.0259 µM) | –
CC1(C)C(=O)Nc2ccc(Cl)cc2C1=NOCc1ccccc1Cl [Example 29] | 2750 to 27500 nM | – | –
anti-6-Chloro-3,3-dimethyl-4-(isopropylazino)-1,3-dihydroquinolin-2-one [Example 12] | – | – | 0.01 to 0.1 µg/mL
CON=C1c2cc(Cl)ccc2NC(=S)C1(C)C [Example 35] | 3.72 to 37.2 nM | – | –
CCON=C1c2cc(Cl)ccc2NC(=S)C12CCC2 [Example 115] | 3.39 to 33.9 nM | 0.04 µg/mL (≈ 0.136 µM) | –
CCCON=C1c2cc(Cl)ccc2NC(=S)C1(C)C [Example 9, anti-6-Chloro-3,3-dimethyl-4-(n-propyloxyimino)-1,3dihydroquinoline-2-thion] | 3.37 to 33.7 nM | 0.04 µg/mL (≈ 0.135 µM) | –
COc1ccc2c(c1)C(=NOC(C)C)C(C)(C)C(=O)N2 [Example 44] | ~36.2 nM | – | –
CCON=C1c2cc(Cl)ccc2NC(=S)C1(C)C [Example 3, anti-6-Chloro-3,3-dimethyl-4-(ethyloxyimino)-l,3-dihydroquinoline-2-thione] | 14.1 nM | 0.008 µg/mL (≈ 0.0283 µM) | –
CSc1ccc2c(c1)C(=NOC(C)C)C(C)(C)C(=S)N2 [Example 82] | 32.4 to 324 nM | < 0.08 µg/mL | –

Compound | IC50 [1] | MIC (HIV) | Reverse transcriptase assay IC50 [1]
CCCON=C1c2cc(Cl)ccc2NC(=O)C1(C)C [Example 8, anti-6-Chloro-3,3-dimethyl-4-(n-propyloxyimino)-l,3-dihydroquinolin-2-one] | 35.6 to 356 nM | 0.2 µg/mL (≈ 0.712 µM) | –
C#CCON=C1c2cc(Cl)ccc2NC(=O)C1(C)C [Example 51] | 36.1 to 361 nM | – | –
CCC1C(=O)Nc2ccc(Cl)cc2C1=NO (stereo not drawn) [Example 38] | 4190 to 41900 nM | – | –
CCON=C1c2cc(Cl)ccc2N=C(Nc2ccccc2)C1(C)C [Example 131] | 29.3 to 293 nM | 1 µg/mL (≈ 2.93 µM) | –
CC(C)ON=C1c2cc(Cl)ccc2NC(=O)C1(C)C [Example 6, anti-6-Chloro-3,3-dimethyl-4-(isopropyloxyimino)-l,3dihydroquinolin-2-one] | 3.56 to 35.6 nM | 0.008 µg/mL (≈ 0.0285 µM) | –
CC1(C)C(=S)Nc2ccc(Cl)cc2C1=NOCc1ccccc1Cl [Example 30] | 264 to 2640 nM | – | –
COCCON=C1c2cc(Cl)ccc2NC(=O)C1(C)C [Example 32] | 337 to 3370 nM | 1 µg/mL (≈ 3.37 µM) | –
CCC1C(=O)Nc2ccc(Cl)cc2C1=NOC(C)C (stereo not drawn) [Example 40] | 35.6 to 356 nM | – | –
CCC(C)ON=C1c2cc(Cl)ccc2NC(=O)C1(C)C (stereo not drawn) [Example 52] | 33.9 to 339 nM | – | –
CC(C)=NN=C1c2cc(Cl)ccc2NC(=S)C1(C)C [Example 62] | 3.4 to 34 nM | 0.04 µg/mL (≈ 0.136 µM) | –
CC(C)ON=C1c2cc(OC(F)(F)F)ccc2NC(=S)C1(C)C [Example 87] | 28.9 to 289 nM | 0.04 µg/mL (≈ 0.115 µM) | –
CC(C)ON=C1c2cc(Cl)ccc2NC(=O)C12CCCC2 [Example 123] | 3.26 to 32.6 nM | – | –
CC1(C)C(=S)Nc2ccc(Cl)cc2C1=NOCc1cccc(Cl)c1 [Example 24] | 26.4 to 264 nM | – | –
CC(C)ON=C1c2cc(Cl)ccc2NC(=S)C12CCC2 [Example 120] | 3.24 to 32.4 nM | – | –
CCC(C)ON=C1c2cc(Cl)ccc2NC(=S)C1(C)C (stereo not drawn) [Example 67] | 32.2 to 322 nM | 0.04 µg/mL (≈ 0.129 µM) | –
CCON=C1c2cc(Cl)ccc2NC(=O)C1(C)C [Example 4, syn-6-Chloro-3,3-dimethyl-4-(ethyloxyimino)-l,3-dihydroquinolin-2-one] | 37.5 to 375 nM | – | –
CC1(C)C(=O)Nc2ccc(Cl)cc2C1=NOCc1cccc(Cl)c1 [Example 23] | 275 to 2750 nM | – | –
CCON=C1c2cc(Cc3ccncc3)ccc2NC(=S)C1(C)C [Example 104] | ~29.5 nM | 0.04 µg/mL (≈ 0.118 µM) | –
CON=C1c2cc(Cl)ccc2NC(=O)C1(C)C [Example 34] | 39.6 to 396 nM | – | –
CCON=C1c2cc(Cl)ccc2NC(=NO)C1(C)C [Example 70, anti-6-Chloro-3,3,-dimethyl-4-(ethyloxyimino)-2-hydroxyimino-1,3-dihydroquinoline] | 3.55 to 35.5 nM | – | –
CCON=C1c2cc(OC)ccc2NC(=S)C1(C)C [Example 43] | 3.59 to 35.9 nM | – | –
COc1ccc2c(c1)C(=NOC(C)C)C(C)(C)C(=S)N2 [Example 45] | 3.42 to 34.2 nM | – | –
CSc1ccc2c(c1)C(=NOC(C)C)C(C)(C)C(=O)N2 [Example 78] | 34.2 to 342 nM | – | –
CC1(C)C(=O)N(Cc2ccccc2)c2ccc(Cl)cc2C1=NOCc1ccccc1 [Example 10B, anti-(1-Benzyl)-4-(benzyloxyimino)-6-chloro-3,3-dimethyl-1,3-dihydroquinolin-2-one] | > 23900 nM | – | –
CSCCON=C1c2cc(Cl)ccc2NC(=O)C1(C)C [Example 49] | 320 to 3200 nM | – | –
